Results on one compound are retold here after US7405214B2, “Nucleoside derivatives and therapeutic use thereof” (Rexahn Corporation, priority 2004, dated 2008).

One data set relates to A549 (lung). As to the kind of experiment: SRB cell growth inhibition assay, A549. The class given is cell-based. The settings on record: Homo sapiens, A549, 96 hours. An excerpt: (§1) Cancer cell lines to determine the effect of nucleoside compounds were obtained from the following sources: Human OVCAR-3 (ovary), MCF-7 (breast, hormone-dependent), MDA-MB-231 (breast), HeLa (cervix), PC3 (prostate), LNCap (prostate), HepG2 (liver), A549 (lung), NCI-H226 (lung), HT-29 (colon), HCT116 (colon), SK-MEL-28 (melanoma) and PANC-1 (pancreas) from the American Type Culture Collection (ATCC) (Manassas, Va.); U251 (brain) from Riken (Japan); MKN-45 (stomach) from DSMZ (Germany); UMRC2 (kidney) from the United States National Cancer Institute (Bethesda, Md.). […]
(§2) The growth inhibition assay of RX-3117 against 16 human tumor cell lines was performed using the Sulforhodamine B (“SRB”) method (Skehan et al., J. National Cancer Institute, 82: 1107-1112 (1990)). […] After 5 minutes agitation in 10 mM Tris solution, the absorbance of each well was measured at 530 nm using Benchmark Plus Microplate reader (Bio-Rad Laboratories, Hercules, Calif.).
(§3) To translate the OD530 values into the number of live cells in each well, the OD530 values were compared to those on standard OD530—versus—cell number curves generated for each cell line. The percent survival was calculated using the formula: % Survival=live cell number[test]/live cell number[control]×100
(§4) The IC50 values were calculated by non-linear regression analysis.

The next data set has as its system LnCap (prostate). As to the kind of experiment: SRB cell growth inhibition assay, LnCap. The class given is cell-based. The conditions noted are these: Homo sapiens, 96 hours.
Excerpt: as §1, §2, §3, §4

The test system of another data set is OVCAR-3 (ovary). As to the kind of experiment: SRB cell growth inhibition assay, OVCAR-3. The class given is cell-based. The conditions noted are these: Homo sapiens, OVCAR-3, 96 hours.
Excerpt: as §1, §2, §3, §4

For a further data set, the system named is HeLa (cervix). Put plainly: SRB cell growth inhibition assay, HeLa. The class given is cell-based. The conditions noted are these: Homo sapiens, 96 hours.
Excerpt: as §1, §2, §3, §4

Another data set has as its system PC3 (prostate). As to the kind of experiment: SRB cell growth inhibition assay, PC3. The class given is cell-based. The conditions noted are these: Homo sapiens, PC3, 96 hours.
Excerpt: as §1, §2, §3, §4

Another data set deals with PANC-1 (pancreas). Put plainly: SRB cell growth inhibition assay, PANC-1. The class given is cell-based. The conditions noted are these: Homo sapiens, PANC-1, 96 hours.
Excerpt: as §1, §2, §3, §4

Data set [1] has as its system MCF-7 (breast, hormone-dependent). Put plainly: SRB cell growth inhibition assay, MCF-7. The settings on record: Homo sapiens, MCF7, MCF-7, 96 hours. The class given is cell-based.
Excerpt: as §1, §2, §3, §4

Data set [2] relates to HCT116 human colon carcinoma xenografts. Put plainly: Xenograft study in nude mice. The class given is in vivo. The settings on record: intraperitoneal, three times per week day 5 to day 37; for tumor volume compared to the controls: after day 37. The procedure: In order to observe the inhibition of growth of tumor in an animal model, an […] xenograft study of nude mice was conducted utilizing RX-3117. Suitable human cancer cell lines are those that have been tested already for inhibition of cancer cell growth, and particularly preferred was colon carcinoma HCT116. The antitumor efficacy of RX-3117 was evaluated against subcutaneously injected tumor xenografts in nude mice and tumor volume was measured after the treatment of RX-3117.
HCT116 cell suspension (2×10^6 cells in 0.1 ml of RPMI) was injected subcutaneously into the right flank of six-week-old male athymic mice (BALB/c nu/nu) on day 0. A sufficient number of mice were injected with HCT116 cell suspension so that tumors in a volume range as narrow as possible were selected for the trial on the day of treatment initiation. Animals with tumors in the proper size range were assigned to various treatment groups. RX-3117 was dissolved in 10% DMSO in PBS and solvent alone served as control. All study medications (control, RX-3117: 2 mg/kg/day, RX-3117: 10 mg/kg/day) were given by intraperitoneal injections three times per week starting from day 5 and ending on day 37. To quantify tumor growth, three perpendicular diameters of the tumors were measured with calipers every 3-5 days, and the body weight of the mice was monitored for toxicity. The tumor volume was calculated using the formula: tumor volume (mm^3)=(width)×(length)×(height)×π/6.

The test system of a further data set is SK-MEL-28 (melanoma). Put plainly: SRB cell growth inhibition assay, SK-MEL-28. The class given is cell-based. The settings on record: Homo sapiens, SK-MEL-28, 96 hours.
Excerpt: as §1, §2, §3, §4

Another data set relates to MKN-45 (stomach). As to the kind of experiment: SRB cell growth inhibition assay, MKN-45. The class given is cell-based. The conditions noted are these: Homo sapiens, MKN-45, 96 hours.
Excerpt: as §1, §2, §3, §4

The test system of a further data set is HepG2 (liver). As to the kind of experiment: SRB cell growth inhibition assay, HepG2. The class given is cell-based. The settings on record: Homo sapiens, HepG2, 96 hours.
Excerpt: as §1, §2, §3, §4

For the next data set, the system named is NCI-H226 (lung). Put plainly: SRB cell growth inhibition assay, NCI-H226. The class given is cell-based. The settings on record: Homo sapiens, NCI-H226, 96 hours.
Excerpt: as §1, §2, §3, §4

For the next data set, the system named is HT-29 (colon). As to the kind of experiment: SRB cell growth inhibition assay, HT-29. The class given is cell-based. The settings on record: Homo sapiens, HT-29, 96 hours.
Excerpt: as §1, §2, §3, §4

The subject of another data set is HCT116 (colon). Put plainly: SRB cell growth inhibition assay, HCT116. The conditions noted are these: Homo sapiens, HCT-116, HCT116, 96 hours. The class given is cell-based.
Excerpt: as §1, §2, §3, §4

A further data set concerns U251 (brain). As to the kind of experiment: SRB cell growth inhibition assay, U251. The class given is cell-based. The settings on record: Homo sapiens, U-251, U251, 96 hours.
Excerpt: as §1, §2, §3, §4

In a further data set the test system is MDA-MB-231 (breast). As to the kind of experiment: SRB cell growth inhibition assay, MDA-MB-231. The class given is cell-based. The settings on record: Homo sapiens, MDA-MB-231, 96 hours.
Excerpt: as §1, §2, §3, §4

The next data set deals with UMRC2 (kidney). As to the kind of experiment: SRB cell growth inhibition assay, UMRC2. The class given is cell-based. The conditions noted are these: Homo sapiens, UMRC2, 96 hours.
Excerpt: as §1, §2, §3, §4

As for `Nc1ccn([C@@H]2C(F)=C(CO)[C@@H](O)[C@H]2O)c(=O)n1` [RX-3117, (1S,4R,5S)-4-Amino-1-(2-fluoro-4,5-dihydroxy-3-hydroxymethyl-cyclopent-2-enyl)-1H-pyrimidin-2-one], the IC50 was 500 nM in the data set on A549 (lung); 2670 nM in the data set on LnCap (prostate); 800 nM with OVCAR-3 (ovary); 1350 nM in the data set with HeLa (cervix); 630 nM in the data set with PC3 (prostate); 620 nM in the data set with PANC-1 (pancreas). In addition, the IC50 in data set [1] worked out at 340 nM; in the data set with SK-MEL-28 (melanoma) it was 1380 nM; in the data set with MKN-45 (stomach), 340 nM; with HepG2 (liver) it was 790 nM; with NCI-H226 (lung), 250 nM; in the data set with HT-29 (colon) it was 280 nM. For the same compound, the concentration for half-maximal inhibition (IC50) with HCT116 (colon) amounted to 190 nM; in the data set with U251 (brain), 830 nM; in the data set with MDA-MB-231 (breast), 180 nM; with UMRC2 (kidney), 830 nM. The “tumor volume compared to the controls” value in data set [2] (2 mg/kg/day) and in [2] (10 mg/kg/day) was “significantly reduced” each time. Also, the body weight fluctuations result in data set [2] (2 and 10 mg/kg/day) is “no more than 1 g”.

A word on the IC50: it is the concentration that inhibits the measured activity by half. A lower IC50 goes with greater potency in that assay.
